Measurements reported in patent US12685312B2, “Sulfonamide apyrase inhibitors” (Texas Crop Science, Inc., priority 2022, dated 2026).

test system: apyrase; experiment: Screen for apyrase inhibitors (Method 1, in vitro phosphate-release absorbance assay); type: biochemical; settings: inhibitor conc at 1 mM stock, 1 hr room temperature, absorbance 630 nm; rounded average of two assay results
In short: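 Phosphate-release colorimetric assay (Windsor method) in 60 mM Hepes, 3 mM MgCl2, 3 mM CaCl2, 3 mM ATP, pH 6.5, with compound or DMSO control added. Released phosphate developed with ammonium molybdate and ascorbic acid/TCA, then stopped with citrate/acetic acid.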

Structure (SMILES)	% Inhibition of Apyrase [%]
O=C(Nc1ccc(F)cc1)c1cccc(S(=O)(=O)N2CCc3ccccc32)c1 [I-512, N-(4-fluorophenyl)-3-(indolin-1-ylsulfonyl)benzamide]	56
Cc1ccc(C)c(S(=O)(=O)Nc2ccc(C(=O)Nc3cccc(C(F)(F)F)c3)cc2)c1 [I-922, 4-((2,5-dimethylphenyl)sulfonamido)-N-(3-(trifluoromethyl)phenyl)benzamide]	57
O=C(c1cccc(S(=O)(=O)Nc2cccc(C(F)(F)F)c2)c1)N1CCCc2ccccc21 [I-441, 3-(1,2,3,4-tetrahydroquinoline-1-carbonyl)-N-(3-(trifluoromethyl)phenyl)benzenesulfonamide]	62
CCOc1ncccc1C(=O)Nc1cccc(S(=O)(=O)N(C)c2ccccc2)c1 [I-711, 2-ethoxy-N-(3-(N-methyl-N-phenylsulfamoyl)phenyl)nicotinamide]	60
O=C(Nc1cccc(F)c1)c1cccc(S(=O)(=O)Nc2ccc3c(c2)OCO3)c1 [I-265, 3-(N-(benzo[d][1,3]dioxol-5-yl)sulfamoyl)-N-(3-fluorophenyl)benzamide]	58
COc1cccc(S(=O)(=O)Nc2ccc(C(=O)Nc3cccc(C(F)(F)F)c3)cc2)c1 [I-916, 4-((3-methoxyphenyl)sulfonamido)-N-(3-(trifluoromethyl)phenyl)benzamide]	58
O=C(Nc1cccc(C(F)(F)F)c1)c1cccc(NS(=O)(=O)c2ccc(Cl)s2)c1 [I-634, 3-((5-chlorothiophene)-2-sulfonamido)-N-(3-(trifluoromethyl)phenyl)benzamide]	59
O=C(Nc1cccc(NS(=O)(=O)c2ccc(Cl)cc2)c1)c1cc(F)ccc1F [I-212, N-(3-((4-chlorophenyl)sulfonamido)phenyl)-2,5-difluorobenzamide]	69
O=C(Nc1cccc(Cl)c1)c1ccc(NS(=O)(=O)c2ccc(F)c(F)c2)cc1 [I-906, N-(3-chlorophenyl)-4-((3,4-difluorophenyl)sulfonamido)benzamide]	61
CN(c1ccccc1)S(=O)(=O)c1cccc(NC(=O)c2cc3cc(F)ccc3[nH]2)c1 [I-704, 5-fluoro-N-(3-(N-methyl-N-phenylsulfamoyl)phenyl)-1H-indole-2-carboxamide]	65
O=C(Nc1ccc2c(c1)OCO2)c1ccc(NS(=O)(=O)c2ccc3c(c2)OCCO3)cc1 [I-921, N-(benzo[d][1,3]dioxol-5-yl)-4-((2,3-dihydrobenzo[b][1,4]dioxine)-6-sulfonamido)benzamide]	57
Cc1ccc(Cl)cc1NC(=O)c1ccc(S(=O)(=O)N2CCCc3ccccc32)cc1 [I-863, N-(5-chloro-2-methylphenyl)-4-((3,4-dihydroquinolin-1(2H)-yl)sulfonyl)benzamide]	59
O=C(Nc1ccc(Br)cc1)c1ccc(NS(=O)(=O)c2ccc(F)c(F)c2)cc1 [I-948, N-(4-bromophenyl)-4-((3,4-difluorophenyl)sulfonamido)benzamide]	43
COc1ccc(NS(=O)(=O)c2cccc(C(=O)Nc3ccc(OC(F)F)cc3)c2)cc1 [I-460, N-(4-(difluoromethoxy)phenyl)-3-(N-(4-methoxyphenyl)sulfamoyl)benzamide]	60
O=C(Nc1ccc2c(c1)OCCCO2)c1cccc(S(=O)(=O)N2CCc3ccccc32)c1 [I-609, N-(3,4-dihydro-2H-benzo[b][1,4]dioxepin-7-yl)-3-(indolin-1-ylsulfonyl)benzamide]	13
NC(=O)OCCNC(=O)c1cccc(S(=O)(=O)Nc2ccc(Br)cc2)c1 [I-17, 2-(3-(N-(4-bromophenyl)sulfamoyl)benzamido)ethyl carbamate]	52
